The values that follow come from US20260124197A1, “NOVEL HETEROBICYCLIC COMPOUND FOR INHIBITING YAP-TEAD INTERACTION AND PHARMACEUTICAL COMPOSITION COMPRISING SAME” (priority 2022, published 2026).

The subject of this test is TEAD transcriptional activity. As to the kind of experiment: TEAD reporter activity inhibition test (luciferase reporter, MCF7 cell line). In kind it is cell-based. Particulars: Homo sapiens; TEAD (GTIIC) firefly luciferase reporter MCF7 cell line, 24 hours, ONE-Glo luminescence. Here is the method:
Experimental Example 1: TEAD Reporter Activity Inhibition Test
The ability of the synthetic compounds to inhibit TEAD target gene transcription was measured. This evaluation method measures the transcriptional activity of TEAD by measuring the luciferase luminescence expressed when TEAD binds to a target gene and activates transcription using the MCF7 cell line (BPS Bioscience, Inc., USA) in which a firefly luciferase reporter gene has been introduced into the specific binding structure of TEAD, GTIIC (5′-ACATTCCA-3′). Cell lines were cultured in MEM medium added with 10% FBS, 1% Penicillin/Streptomycin, 1% non-essential amino acids, 10 μg/ml insulin, and 400 μg/ml Geneticin, and Geneticin was excluded when testing for inhibition of TEAD reporter activity. […] cells/100 μl were dispensed into a white 96-well plate and cultured for 6 hours. 50 μl of the test compound diluted to 3× concentration was mixed into each well. After 24 hours of cell culture, the luciferase signal was measured by luminescence using the ONE-Glo luciferase assay system (Promega, E6120) following the manufacturer's protocol. The 50% inhibition value (IC50) for TEAD transcriptional activity was calculated using GraphPad Prism 9.
If the IC50 value is less than 100 nM, it is indicated as A, if it is at least 100 nM but less than 500 nM, it is indicated as B, and if it is 500 nM or more, it is indicated as C.

A value given as a limit tells only on which side of the number the result lay.

Regarding `CNS(=O)(=O)c1ccc2c(c1)c(-c1nccnc1C)cn2-c1ccc(C(F)(F)F)cc1` [Example 1, N-methyl-3-(3-methylpyrazin-2-yl)-1-(4-(trifluoromethyl)phenyl)-1H-indole-5-sulfonamide], the IC50 was at least 500 nM. Turning to `CNS(=O)(=O)c1ccc2c(c1)c(-c1ccn(C)n1)cn2-c1ccc(C(F)(F)F)cc1` [Example 3, N-methyl-3-(1-methyl-1H-pyrazol-3-yl)-1-(4-(trifluoromethyl)phenyl)-1H-indole-5-sulfonamide], the IC50 lay in the range of 100 to 500 nM. `CNS(=O)(=O)c1ccc2c(c1)c(-c1cnn(C)c1)cn2-c1ccc(C(F)(F)F)cc1` [Example 4, N-methyl-3-(1-methyl-1H-pyrazol-4-yl)-1-(4-(trifluoromethyl)phenyl)-1H-indole-5-sulfonamide] yielded an IC50 of 100 to 500 nM. The compound `CNS(=O)(=O)c1ccc2c(c1)c(-c1cn(C)cn1)cn2-c1ccc(OC(F)(F)F)cc1` [Example 5, N-methyl-3-(1-methyl-1H-imidazol-4-yl)-1-(4-(trifluoromethoxy)phenyl)-1H-indole-5-sulfonamide] registered an IC50 of 100 to 500 nM. For the compound `CNS(=O)(=O)c1ccc2c(c1)c(-c1cn(C(C)C)cn1)cn2-c1ccc(C(F)(F)F)cc1` [Example 6, 3-(1-isopropyl-1H-imidazol-4-yl)-N-methyl-1-(4-(trifluoromethyl)phenyl)-1H-indole-5-sulfonamide], the IC50 is at least 500 nM. On to `CCNS(=O)(=O)c1ccc2c(c1)c(-c1cn(C)cn1)cn2-c1ccc(C(F)(F)F)cc1` [Example 7, N-ethyl-3-(1-methyl-1H-imidazol-4-yl)-1-(4-(trifluoromethyl)phenyl)-1H-indole-5-sulfonamide], for which the IC50 is 100 to 500 nM. With `CNS(=O)(=O)c1ccc2c(c1)c(-c1ccc(C)s1)cn2-c1ccc(C(F)(F)F)cc1` [Example 9, N-methyl-3-(5-methylthiophen-2-yl)-1-(4-(trifluoromethyl)phenyl)-1H-indole-5-sulfonamide] the figure was 100 to 500 nM. As for `CNS(=O)(=O)c1ccc2c(c1)c(-c1cn(C)cn1)cn2-c1ccc(C(F)(F)F)cn1` [Example 12, N-methyl-3-(1-methyl-1H-imidazol-4-yl)-1-(5-(trifluoromethyl)pyridin-2-yl)-1H-indole-5-sulfonamide], the IC50 fell in the range of 100 to 500 nM. `CNS(=O)(=O)c1ccc2c(c1)c(-c1cn(C)cn1)cn2-c1ccc(Cl)cc1` [Example 14, 1-(4-chlorophenyl)-N-methyl-3-(1-methyl-1H-imidazol-4-yl)-1H-indole-5-sulfonamide] had an IC50 of 100 to 500 nM. Compound `CNS(=O)(=O)c1ccc2c(c1)c(-c1ccncc1)cn2-c1ccc(C(F)(F)F)cc1` [Example 15, N-methyl-3-(pyridin-4-yl)-1-(4-(trifluoromethyl)phenyl)-1H-indole-5-sulfonamide] had an IC50 of 100 to 500 nM.

In the case of `CNS(=O)(=O)c1ccc2c(c1)c(-c1ccccc1)cn2-c1ccc(C(F)(F)F)cc1` [Example 17, N-methyl-3-phenyl-1-(4-(trifluoromethyl)phenyl)-1H-indole-5-sulfonamide], the half-inhibitory concentration (IC50) lay in the range of 100 to 500 nM. As for `CNS(=O)(=O)c1ccc2c(c1)c(-c1cn(C)cn1)cn2-c1ccc(C2CCCCC2)cc1` [Example 18, 1-(4-cyclohexylphenyl)-N-methyl-3-(1-methyl-1H-imidazol-4-yl)-1H-indole-5-sulfonamide], the figure is at least 500 nM; as for `CN(C)S(=O)(=O)c1ccc2c(c1)c(-c1cn(C)cn1)cn2-c1ccc(C(F)(F)F)cc1` [Example 19, N,N-dimethyl-3-(1-methyl-1H-imidazol-4-yl)-1-(4-(trifluoromethyl)phenyl)-1H-indole-5-sulfonamide], at least 500 nM; as for `CNS(=O)(=O)c1ccc2c(c1)c(-c1cn(C)cn1)cn2-c1cccc(C(F)(F)F)c1` [Example 21, N-methyl-3-(1-methyl-1H-imidazol-4-yl)-1-(3-(trifluoromethyl)phenyl)-1H-indole-5-sulfonamide], 100 to 500 nM. On to `CNS(=O)(=O)c1ccc2c(c1)c(-c1cn(C)cn1)cn2-c1ccc(C#N)cc1` [Example 22, 1-(4-cyanophenyl)-N-methyl-3-(1-methyl-1H-imidazol-4-yl)-1H-indole-5-sulfonamide], for which the concentration for half-maximal inhibition (IC50) is at least 500 nM.

In turn, `CNS(=O)(=O)c1ccc2c(c1)c(-c1ccc(C)o1)cn2-c1ccccc1` [Example 24, N-methyl-3-(5-methylfuran-2-yl)-1-phenyl-1H-indole-5-sulfonamide] had an IC50 of 100 to 500 nM.

Compound `CNS(=O)(=O)c1ccc2c(c1)c(-c1cccc(F)c1F)cn2-c1ccc(C(F)(F)F)cc1` [Example 25, 3-(2,3-difluorophenyl)-N-methyl-1-(4-(trifluoromethyl)phenyl)-1H-indole-5-sulfonamide] displayed a concentration for half-maximal inhibition (IC50) of under 100 nM. `CNS(=O)(=O)c1ccc2c(c1)c(-c1cn(C)cn1)cn2-c1ccccc1` [Example 26, N-methyl-3-(1-methyl-1H-imidazol-4-yl)-1-phenyl-1H-indole-5-sulfonamide]: the IC50 is at least 500 nM. With `CNS(=O)(=O)c1ccc2c(c1)c(-c1cn(C)cn1)cn2-c1ccc(C(F)(F)F)c(Cl)c1` [Example 27, 1-(3-chloro-4-(trifluoromethyl)phenyl)-N-methyl-3-(1-methyl-1H-imidazol-4-yl)-1H-indole-5-sulfonamide] the figure was under 100 nM; with `CNS(=O)(=O)c1ccc2c(c1)c(-c1c[nH]cn1)cn2-c1ccc(C(F)(F)F)cc1` [Example 29, 3-(1H-imidazol-4-yl)-N-methyl-1-(4-(trifluoromethyl)phenyl)-1H-indole-5-sulfonamide], 100 to 500 nM; with `CNS(=O)(=O)c1ccc2c(c1)c(-c1cn(Cc3ccccc3F)cn1)cn2-c1ccc(C(F)(F)F)cc1` [Example 30, 3-(1-(2-fluorobenzyl)-1H-imidazol-4-yl)-N-methyl-1-(4-(trifluoromethyl)phenyl)-1H-indole-5-sulfonamide], under 100 nM. Consider `CNS(=O)(=O)c1ccc2c(-c3cn(C)cn3)cn(-c3ccc(C(F)(F)F)cc3)c2c1` [Example 33, N-methyl-3-(1-methyl-1H-imidazol-4-yl)-1-(4-(trifluoromethyl)phenyl)-1H-indole-6-sulfonamide], for which the IC50 is 100 to 500 nM. As for `CNS(=O)(=O)c1ccc2c(c1)c(-c1ccc(C(F)(F)F)o1)cn2-c1ccc(C(F)(F)F)cc1` [Example 34, N-methyl-3-(5-(trifluoromethyl)furan-2-yl)-1-(4-(trifluoromethyl)phenyl)-1H-indole-5-sulfonamide], the figure is 100 to 500 nM; as for `CNS(=O)(=O)c1ccc2c(c1)c(-c1cn(C3COC3)cn1)cn2-c1ccc(C(F)(F)F)cc1` [Example 35, N-methyl-3-(1-(oxetan-3-yl)-1H-imidazol-4-yl)-1-(4-(trifluoromethyl)phenyl)-1H-indole-5-sulfonamide], 100 to 500 nM. With `CNS(=O)(=O)c1ccc2c(c1)c(-c1ccc(Cl)o1)cn2-c1ccc(C(F)(F)F)cc1` [Example 36, 3-(5-chlorofuran-2-yl)-N-methyl-1-(4-(trifluoromethyl)phenyl)-1H-indole-5-sulfonamide] the figure was 100 to 500 nM. With `CNS(=O)(=O)c1ccc2c(c1)c(-c1cn(CC(F)(F)F)cn1)cn2-c1ccc(C(F)(F)F)cc1` [Example 37, N-methyl-3-(1-(2,2,2-trifluoroethyl)-1H-imidazol-4-yl)-1-(4-(trifluoromethyl)phenyl)-1H-indole-5-sulfonamide] the figure was under 100 nM.

`CNS(=O)(=O)c1ccc2c(c1)c(-c1cn(C)cn1)cn2-c1ccc(C)cc1` [Example 39, N-methyl-3-(1-methyl-1H-imidazol-4-yl)-1-(p-tolyl)-1H-indole-5-sulfonamide] gave an IC50 of 100 to 500 nM. The compound `CNS(=O)(=O)c1ccc2c(c1)c(-c1cn(C)cn1)cn2-c1ccc(C(C)(C)C)cc1` [Example 40, 1-(4-(t-butyl)phenyl)-N-methyl-3-(1-methyl-1H-imidazol-4-yl)-1H-indole-5-sulfonamide] gave an IC50 of under 100 nM. Compound `CNS(=O)(=O)c1ccc2c(c1)c(-c1cnco1)cn2-c1ccc(C(F)(F)F)cc1` [Example 41, N-methyl-3-(oxazol-5-yl)-1-(4-(trifluoromethyl)phenyl)-1H-indole-5-sulfonamide] yielded an IC50 of 100 to 500 nM. In the case of `CNS(=O)(=O)c1ccc2c(c1)c(-c1cn3c(n1)CCC3)cn2-c1ccc(C(F)(F)F)cc1` [Example 45, 3-(6,7-dihydro-5H-pyrrolo[1,2-a]imidazol-2-yl)-N-methyl-1-(4-(trifluoromethyl)phenyl)-1H-indole-5-sulfonamide], the IC50 is under 100 nM. With `CNS(=O)(=O)c1ccc2c(c1)c(N1CC(F)C1)cn2-c1ccc(C(F)(F)F)cc1` [Example 46, 3-(3-fluoroazetidin-1-yl)-N-methyl-1-(4-(trifluoromethyl)phenyl)-1H-indole-5-sulfonamide], the IC50 is under 100 nM. On to `CNS(=O)(=O)c1ccc2c(c1)c(-c1cn(CC(=O)N(C)C)cn1)cn2-c1ccc(C(F)(F)F)cc1` [Example 47, N,N-dimethyl-2-(4-(5-(N-methylsulfamoyl)-1-(4-(trifluoromethyl)phenyl)-1H-indol-3-yl)-1H-imidazole-1-yl) acetamide], for which the IC50 was at least 500 nM.
